This note sets out measurements from BindingDB's records for patent US10975056 (Glaxosmithkline Intellectual Property Development, 2021).

Bounds are passed on as bounds.

The target in this assay is DNA (cytosine-5)-methyltransferase 1 (Homo sapiens, UniProt P26358). Nature of the assay: Biochemical Activity Assay. On the procedure: Biochemical activity of DNMT1 analyzed using SPA technology. […] Low control wells contained 5 μL of buffer instead of enzyme. Following a 40 minute incubation, the reaction was quenched upon the addition of 10 μL of stop mixture containing 1 mM SAM (Sigma A7007) and 2 mg/mL PEI beads (Perkin Elmer RPNQ0098).
DNA (cytosine-5)-methyltransferase 1, sequence (P26358 whole entry): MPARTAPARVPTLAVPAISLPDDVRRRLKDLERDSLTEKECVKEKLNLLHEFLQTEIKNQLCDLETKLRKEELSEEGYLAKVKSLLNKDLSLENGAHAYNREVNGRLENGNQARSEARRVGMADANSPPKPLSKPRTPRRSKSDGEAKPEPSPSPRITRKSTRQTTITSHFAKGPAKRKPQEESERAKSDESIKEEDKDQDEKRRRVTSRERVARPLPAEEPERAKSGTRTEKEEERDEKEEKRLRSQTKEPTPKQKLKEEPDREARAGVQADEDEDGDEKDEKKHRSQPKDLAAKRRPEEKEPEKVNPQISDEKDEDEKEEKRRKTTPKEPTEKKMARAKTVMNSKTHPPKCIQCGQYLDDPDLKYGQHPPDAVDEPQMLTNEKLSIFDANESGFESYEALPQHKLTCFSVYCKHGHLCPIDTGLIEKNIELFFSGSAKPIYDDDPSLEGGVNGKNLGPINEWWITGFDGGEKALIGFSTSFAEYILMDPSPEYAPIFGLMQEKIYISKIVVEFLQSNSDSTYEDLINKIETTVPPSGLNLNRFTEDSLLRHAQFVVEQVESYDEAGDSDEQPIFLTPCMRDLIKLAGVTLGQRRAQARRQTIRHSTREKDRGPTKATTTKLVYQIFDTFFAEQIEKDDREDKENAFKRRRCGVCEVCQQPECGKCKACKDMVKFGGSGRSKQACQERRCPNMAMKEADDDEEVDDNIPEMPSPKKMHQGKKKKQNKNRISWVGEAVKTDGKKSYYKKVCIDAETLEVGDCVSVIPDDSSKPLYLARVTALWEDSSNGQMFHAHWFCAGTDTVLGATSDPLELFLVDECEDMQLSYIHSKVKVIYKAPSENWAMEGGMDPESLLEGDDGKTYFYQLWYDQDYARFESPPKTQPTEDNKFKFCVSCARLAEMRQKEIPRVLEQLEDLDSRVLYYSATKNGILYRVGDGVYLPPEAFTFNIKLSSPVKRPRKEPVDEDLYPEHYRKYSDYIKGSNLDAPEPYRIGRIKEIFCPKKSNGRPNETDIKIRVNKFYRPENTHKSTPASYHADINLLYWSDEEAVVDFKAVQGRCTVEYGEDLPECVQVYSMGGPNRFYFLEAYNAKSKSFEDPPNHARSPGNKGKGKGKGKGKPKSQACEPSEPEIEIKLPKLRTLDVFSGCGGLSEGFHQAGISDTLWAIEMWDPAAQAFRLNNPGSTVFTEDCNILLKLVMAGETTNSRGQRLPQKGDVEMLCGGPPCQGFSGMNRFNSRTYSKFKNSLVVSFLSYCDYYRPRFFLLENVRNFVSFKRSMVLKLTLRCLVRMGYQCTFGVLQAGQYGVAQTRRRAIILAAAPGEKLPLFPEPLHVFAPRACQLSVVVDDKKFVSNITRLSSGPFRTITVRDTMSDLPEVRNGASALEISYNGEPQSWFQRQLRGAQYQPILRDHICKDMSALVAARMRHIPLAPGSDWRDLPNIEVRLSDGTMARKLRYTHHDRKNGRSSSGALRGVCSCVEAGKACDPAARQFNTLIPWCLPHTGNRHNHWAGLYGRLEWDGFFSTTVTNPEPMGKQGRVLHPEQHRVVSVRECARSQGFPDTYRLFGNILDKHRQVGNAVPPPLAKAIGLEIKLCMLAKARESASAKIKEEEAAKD

For the compound `CCc1c(C#N)c(SCc2ccc(S(N)(=O)=O)cc2)nc(N2CCCN(C)CC2)c1C#N` [US10975056, Example 76], the IC50 was < 320 nM.
As for `CCc1c(C#N)c(SC(C(N)=O)c2ccccc2)nc(N2CCC(NCC3(C)CCC3)CC2)c1C#N` (centres undefined) [US10975056, Example 466], the figure is < 320 nM.
As for `CCc1c(C#N)c(SC(C(N)=O)c2ccccc2)nc(N2CCC(N3[C@H](C)CC[C@H]3C)CC2)c1C#N` (some centres undefined) [US10975056, Example 472], the figure is < 320 nM.
Then `CCc1c(C#N)c(SC(C(N)=O)c2ccccc2)nc(N(C)CC(=O)N2CC[C@@H](CO)C2)c1C#N` (some centres undefined) [US10975056, Example 652], with < 320 nM.

A word on the IC50: it is the concentration at which inhibition is half-maximal.
